“And” between values parts separate entries of the source, which are not always exact repeats. Equal entries are not always repeated. Where two headings read alike, the source gives them in different places.
Tests used:
[1] = Plasma protein binding by equilibrium dialysis, mouse; type: in vitro ADME; conditions: read-out: fu (mouse)
Description: The binding of test substances to plasma proteins is determined by equilibrium dialysis by means of the Ht-dialysis apparatus (96-well) made of Teflon and a semipermeable membrane (regenerated cellulose, MWCO 12-14K). This separates 150 μl each of a plasma side and a buffer side (50 mM phosphate buffer). The test substance is added in 2 concentrations (usually 3 and 0.3 μM) to the plasma side and binds to plasma proteins. The unbound fraction of the test substance passes through the membrane and is distributed on either side until equilibrium is established (after approx. 6-8 h at 37° C.). The substance concentration on the buffer side and the plasma side is determined by LC-MS analysis. For this, both sides are brought by dilution with buffer or plasma to the same matrix (10% plasma) and then precipitated with methanol. The free (unbound) fraction (fu) is calculated from the quotient of the buffer and plasma concentration. Stability tests and recovery tests are run concurrently as controls. In addition, the substance in buffer is dialysed against buffer, to check the nonspecific binding to apparatus and membrane and establishment of equilibrium. Because during incubation the osmotic pressure of the plasma proteins leads to dilution of the plasma (volume shift), this possible error is determined by weighing blank plasma samples and is included in the calculation of fu. Establishment of equilibrium and plasma stability should have a value not lower than 80% and the recovery should be at least 30%. A free fraction of <1% is regarded as high, between 1 and 10% as moderate and >10% as low plasma protein binding.

Tetranychus urticae = experiment: Tetranychus test, OP-resistant (TETRUR spray treatment); type: in vivo; conditions: Tetranychus urticae, 144 h, read-out: effect (kill of spider mites)
[2] = Pharmacokinetic parameters in the rat (i.v. and intragastric); type: in vivo; conditions: for clearance / Vd / half-life: male, iv; for clearance: read-out: CLplasma (converted); for Vd: read-out: Vss; for half-life: read-out: t½ (converted)
Description: For this, the test substances were applied in dissolved form both for intravenous, and for intragastric application, wherein compatible solubilizers such as PEG400 and/or ethanol were used in a compatible amount.
(§1) The test substances were applied at a dose of 0.1-1 mg/kg. Administration was as a bolus injection in the male rat and as an infusion in the female dog (15 min). At various time points after the bolus injection, and before and after the 15-minute infusion, blood samples of about 100-150 μl were removed via a catheter either from the jugular vein (rat) or from the saphenous vein (dog). Lithium-heparin was added as anticoagulant to the blood samples and they were stored in a refrigerator until required for further processing. After centrifugation of the samples for 15 min at 3000 rpm, an aliquot of 100 μl was taken from the supernatant (plasma) and was precipitated by adding 400 μl of cold ACN or methanol (absolute). The precipitated samples were frozen-out at 20° C. overnight, then centrifuged again at 3000 rpm for 15 min, before 150 μl of the clear supernatant were removed to determine the concentration. The analysis was effected by means of an Agilent 1200 HPLC system with connected LCMS/MS detection.
Calculation of the PK parameters (using PK calculation software, e.g. WinNonLin®): CLplasma: total plasma clearance of the test substance (in l*kg/h); CLblood: total blood clearance of the test substance (in l*kg/h),
where (CLblood=CLplasma*Cp/Cb); Vss: apparent steady-state distribution volume (in 1/kg); t1/2: half-life within a specified interval (here: terminal t1/2, in h); AUCnorm: area under the plasma concentration time profile from time point zero extrapolated to infinity divided by the dose normalized for body weight (in kg*l/h); AUC(0-tn)norm: integrated area under the plasma concentration time profile from time point zero until the last time point at which a plasma concentration was measurable, divided by the dose normalized for body weight (in kg*l/h); Cmax: maximum concentration of the test substance in the plasma (in μg/l); Cmax,norm: maximum concentration of the test substance in the plasma divided by the dose normalized for body weight (in kg/1); Cb/Cp: ratio of the blood to plasma concentration distribution.
as §1, with “administered to fasting male rats or female dogs” for “applied”, “0.3-1 mg/kg intragastrically” for “0.1-1 mg/kg. Administration was”, “using a feeding tube.” for “injection in the male rat and as an infusion in the female dog (15 min).”, “administration,” for “the bolus injection, and before and after the 15-minute infusion,”, “−20°” for “20°”, “centrifuged” for “centrifuged again”
Calculation of the PK Parameters (Using PK Calculation Software, e.g. WinNonLin®): […]

PC3 = experiment: Tumour cell proliferation, CellTiter-Glo, 96-hour incubation, PC3; type: cell-based; conditions: Homo sapiens, PC-3, 96 h, read-out: PC3 IC50
Description: In accordance with the invention, the substances were tested in cell-based assays for the ability of the substances of inhibiting tumour cell proliferation after a 96-hour incubation with the substance. Cell viability was tested using the CellTiter-Glo® luminescent cell viability assay (Promega). The cells were sown at a density of 2000-5000 cells/well (depending on the cell line) in 100 μl growth medium on 96-well microtiter plates. For each cell line examined, cells were sown on a separate plate to determine the luminescence at t=0 hours and t=96 hours. After overnight incubation at 37° C., the luminescence values for the t=0 samples were determined. The dose plates for the t=96 hours points in time were treated with substances diluted with growth medium. The cells were then incubated at 37° C. for 96 hours, and the luminescence values for the t=96 hours samples were then determined. For data analysis, the t=0 values were subtracted from the t=96 hours values for treated and untreated samples. The differences in luminescence in percent between substance-treated samples and control values were used to determine the growth inhibition in percent.
The substances were tested in the following cell lines which represent the stated indications in an exemplary manner: […]

human ACC1 = target: T1, human ACC1 (Homo sapiens, UniProt Q13085); experiment: Human ACC1 enzyme assay (ADP-Glo); type: biochemical; conditions: ACC 1 IC50, individual measurements
T1 construct: FLAG (C); made in house; host or cells: baculovirus-infected insect cells (Hi5)

SMILES | fraction unbound [1] | pest or weed control at 100 g/ha (Tetranychus urticae) | CLblood [2] | F [2] | clearance ([2]; plasma) | Vd ([2]; plasma) | half-life ([2]; plasma) | IC50 (PC3) | IC50 (human ACC1) | melting point | clearance ([2]; in vivo) | Vd ([2]; in vivo) | half-life ([2]; in vivo)
Cc1ccc(-c2ccc(Cl)c(F)c2)cc1C1=C(O)C2(CCC(F)(F)CC2)NC1=O [Example 1-1, 3-(4′-Chloro-3′-fluoro-4-methylbiphenyl-3-yl)-8,8-difluoro-4-hydroxy-1-azaspiro[4.5]dec-3-en-2-one] | 0.0184 | 90% | 0.367 mL/min/kg | 95% | 0.167 mL/min/kg | 0.55 L/kg | 40 h | 39 nM | 117 nM and 125 nM and 69 nM and 95 nM and 58 nM and 97 nM and 53 nM and 54 nM |  |  |  | 
Cc1ccc(-c2ccc(Cl)cc2)cc1C1=C(O)C2(CCC(F)(F)CC2)NC1=O [Example 1-2, 3-(4′-Chloro-4-methylbiphenyl-3-yl)-8,8-difluoro-4-hydroxy-1-azaspiro[4.5]dec-3-en-2-one] | 0.0349 | 100% | 0.2 mL/min/kg | 123% |  |  |  | 50 nM | 68 nM and 80 nM and 99 nM and 109 nM and 72 nM and 65 nM and 135 nM and 153 nM | 105 °C | 0.1 mL/min/kg | 0.36 L/kg | 52 h

Reference: patent US20140011853A1, “SUBSTITUTED 3-(BIPHENYL-3-YL)-8,8-DIFLUORO-4-HYDROXY-1-AZASPIRO[4.5]DEC-3-EN-2-ONES FOR THERAPY” (BAYER INTELLECTUAL PROPERTY GMBH, priority 2011, published 2014)
